Source: article PMC12396409, “Screening and hit evaluation of a microbial metabolite library against the pathogenic Plasmodium falciparum and Toxoplasma gondii parasites” (International Journal for Parasitology: Drugs and Drug …, 2025)
Read-outs that look alike come from different tables or passages of the source. *1 amine or outer side, *2 acyl side, *3 side chain or, on linkers, in order; H or OH if unused. Where a SMILES comes first, the peptide text is derived from it. Bridges are numbered along the chain shown (N, C = ends). [ ]: non-standard residue; d: D form. The star is where a group is joined. hTyr(3S-OH,4S-OH,3'-OSO3H) = N[C@H](C(=O)O)[C@H](O)[C@@H](O)c1ccc(O)c(OS(=O)(=O)O)c1; Orn(4R-OH,5R-OH) = O=C([C@H](C[C@@H](O)[C@@H](O)N[*:3])N[*:1])[*:2]; Pro(3S-OH,4S-Me) = C[C@H]1CN[C@H](C(=O)O)[C@H]1O; Gln(3R-OH) = NC(=O)C[C@@H](O)[C@H](N)C(=O)O; Palmitoyl = CCCCCCCCCCCCCCCC(=O)*; Hyp = O=C(O)[C@@H]1C[C@@H](O)CN1

Key:
[1] = test system: P. falciparum 3D7 parasites; experiment: P. falciparum growth inhibition assay, 1-cycle (72 h treatment), SYBR DNA staining (library screen at 2 μg/mL and dose-response); type: cell-based, Plasmodium falciparum; conditions: for activity at 2 µg/mL: Plasmodium falciparum
[2] = test system: P. falciparum 3D7 parasites; experiment: P. falciparum growth inhibition assay, 2-cycle (120 h treatment), delayed-death screen and dose-response; type: cell-based, Plasmodium falciparum; conditions: for activity at 2 µg/mL: Plasmodium falciparum
[3] = test system: T. gondii RH strain (RH-Tub-eYFP) tachyzoites; experiment: microbe, parasite or virus in culture; type: cell-based, Toxoplasma gondii; conditions: 72 h; for percent parasite growth at 2 µg/mL: Toxoplasma gondii
[4] = library screen at 2 μg/mL, 72 h, % growth, replicate 1
[5] = library screen at 2 μg/mL, 72 h, % growth, replicate 2
[6] = library screen at 2 μg/mL, 120 h, % growth, replicate 1
[7] = library screen at 2 μg/mL, 120 h, % growth, replicate 2
[8] = library screen at 2 μg/mL, % growth, replicate 1
[9] = library screen at 2 μg/mL, % growth, replicate 2
[10] = 3D7, library screen at 2 μg/mL, 72 h, % growth, replicate 1, read-out: Pf_72h_%Growth_Rep1
[11] = 3D7, library screen at 2 μg/mL, 72 h, % growth, replicate 2, read-out: Pf_72h_%Growth_Rep2
[12] = 3D7, library screen at 2 μg/mL, 120 h, % growth, replicate 1, read-out: Pf_120h_%Growth_Rep1
[13] = 3D7, library screen at 2 μg/mL, 120 h, % growth, replicate 2, read-out: Pf_120h_%Growth_Rep2
[14] = library screen at 2 μg/mL, % growth, replicate 1, read-out: Tg_72h_%Growth_Rep1
[15] = library screen at 2 μg/mL, % growth, replicate 2, read-out: Tg_72h_%Growth_Rep2
[16] = T. gondii, screen at 2 μg/mL, replicate 1, read-out: Tg_72h_%Growth_Rep1
[17] = T. gondii, screen at 2 μg/mL, replicate 2, read-out: Tg_72h_%Growth_Rep2

CO[C@@H]1[C@@H](O)[C@@H](O)[C@@H](Oc2ccc3c(O)c(NC(=O)c4ccc(O)c(CC=C(C)C)c4)c(=O)oc3c2C)OC1(C)C [Descarbamylnovobiocin]
Pf_72h_%Growth_Rep1 [1, 4]: 85.51%
Pf_72h_%Growth_Rep2 [1, 5]: 80.09%
Pf_120h_%Growth_Rep1 [2, 6]: 85.93%
Pf_120h_%Growth_Rep2 [2, 7]: 82.51%
Tg_72h_%Growth_Rep1 [3, 8]: 154.63%
Tg_72h_%Growth_Rep2 [3, 9]: 96.44%

C/C=C/C=C/[C@H]1Cc2cc(O)cc(O)c2O1 [Asperfuran]
Pf_72h_%Growth_Rep1 [1, 4]: 81.82%
Pf_72h_%Growth_Rep2 [1, 5]: 86.77%
Pf_120h_%Growth_Rep1 [2, 6]: 70.89%
Pf_120h_%Growth_Rep2 [2, 7]: 94.19%
Tg_72h_%Growth_Rep1 [3, 8]: 65.57%
Tg_72h_%Growth_Rep2 [3, 9]: 59.68%

CO[C@H]1C[C@@H]2CC[C@@H](C)[C@@](O)(O2)C(=O)C(=O)N2CCCC[C@H]2C(=O)O[C@H]([C@H](C)C[C@@H]2CC[C@@H](OCCO)[C@H](OC)C2)CC(=O)[C@H](C)/C=C(\C)[C@@H](O)[C@@H](OC)C(=O)[C@H](C)C[C@H](C)/C=C/C=C/C=C/1C [Everolimus]
activity at 2 µg/mL [1, 10]: 71.5%
activity at 2 µg/mL [1, 11]: 67.8%
activity at 2 µg/mL [2, 12]: 72.3%
activity at 2 µg/mL [2, 13]: 69.3%
percent parasite growth at 2 µg/mL [3, 14]: 40.6%
percent parasite growth at 2 µg/mL [3, 15]: 79.1%

CC[C@@H]1CCN[C@H](C(=O)N[C@@H]([C@H]2O[C@H](SC)[C@H](O)[C@@H](O)[C@H]2O)[C@H](C)Cl)C1 [BIA-P1459]
Pf_72h_%Growth_Rep1 ([1]; P. falciparum 3D7, 72 h, parasite screen at 2 μg/mL, % growth, replicate 1): 26.60%
Pf_72h_%Growth_Rep2 ([1]; P. falciparum 3D7, 72 h, parasite screen at 2 μg/mL, % growth, replicate 2): 41.09%
Pf_120h_%Growth_Rep1 ([2]; P. falciparum 3D7, 120 h, parasite screen at 2 μg/mL, % growth, replicate 1): 9.76%
Pf_120h_%Growth_Rep2 ([2]; P. falciparum 3D7, 120 h, parasite screen at 2 μg/mL, % growth, replicate 2): 125.61%
Tg_72h_%Growth_Rep1 ([3]; T. gondii, parasite screen at 2 μg/mL, % growth, replicate 1): 8.37%
Tg_72h_%Growth_Rep2 ([3]; T. gondii, parasite screen at 2 μg/mL, % growth, replicate 2): 23.25%

CO[C@@H]1[C@H](OC(=O)/C=C/C=C/C=C/C=C/C(=O)O)CC[C@]2(CO2)[C@H]1[C@@]1(C)O[C@@H]1CC=C(C)C [Fumagillin]
activity at 2 µg/mL ([1]; 3D7, 72 h, library screen at 2 μg/mL, 72 h, % growth, replicate 1, read-out: Pf_72h_%Growth_Rep1): 10.6%
activity at 2 µg/mL ([1]; 3D7, 72 h, library screen at 2 μg/mL, 72 h, % growth, replicate 2, read-out: Pf_72h_%Growth_Rep2): 6.01%
activity at 2 µg/mL ([2]; 3D7, 120 h, library screen at 2 μg/mL, 120 h, % growth, replicate 1, read-out: Pf_120h_%Growth_Rep1): 7.49%
activity at 2 µg/mL ([2]; 3D7, 120 h, library screen at 2 μg/mL, 120 h, % growth, replicate 2, read-out: Pf_120h_%Growth_Rep2): 7.63%
percent parasite growth at 2 µg/mL [3, 14]: 31%
percent parasite growth at 2 µg/mL [3, 15]: 30.7%

COC1=C2C[C@@H](C)C[C@H](OC)[C@H](O)[C@@H](C)/C=C(\C)[C@H](OC(N)=O)[C@@H](OC)/C=C\C=C(/C)C(=O)NC(=CC1=O)C2=O [Geldanamycin]
activity at 2 µg/mL [1, 10]: 5.26%
activity at 2 µg/mL [1, 11]: 2.63%
activity at 2 µg/mL [2, 12]: 25.5%
activity at 2 µg/mL [2, 13]: 11.8%
percent parasite growth at 2 µg/mL [3, 14]: 24.8%
percent parasite growth at 2 µg/mL [3, 15]: 24.3%

CN(C)[C@@H]1C(O)=C(C(N)=O)C(=O)[C@@]2(O)C(O)=C3C(=O)c4c(O)ccc(Cl)c4[C@@](C)(O)[C@H]3C[C@@H]12 [Chlortetracycline]
activity at 2 µg/mL ([1]; 3D7, 72 h, P. falciparum, 72 h, screen at 2 μg/mL, replicate 1, read-out: Pf_72h_%Growth_Rep1): 97.7%
activity at 2 µg/mL ([1]; 3D7, 72 h, P. falciparum, 72 h, screen at 2 μg/mL, replicate 2, read-out: Pf_72h_%Growth_Rep2): 90.6%
activity at 2 µg/mL ([2]; 3D7, 120 h, P. falciparum, 120 h, screen at 2 μg/mL, replicate 1, read-out: Pf_120h_%Growth_Rep1): 149%
activity at 2 µg/mL ([2]; 3D7, 120 h, P. falciparum, 120 h, screen at 2 μg/mL, replicate 2, read-out: Pf_120h_%Growth_Rep2): 97.7%
percent parasite growth at 2 µg/mL [3, 16]: 102%
percent parasite growth at 2 µg/mL [3, 17]: 83.5%

CCCCCCCCCCCCCCCC(=O)N[C@H]1C[C@@H](O)[C@@H](O)NC(=O)[C@@H]2[C@@H](O)[C@@H](C)CN2C(=O)[C@H]([C@H](O)CC(N)=O)NC(=O)[C@H]([C@H](O)[C@@H](O)c2ccc(O)c(OS(=O)(=O)O)c2)NC(=O)[C@@H]2C[C@@H](O)CN2C(=O)[C@H]([C@@H](C)O)NC1=O [FR 901379] (Palmitoyl-[Orn(4R-OH,5R-OH)]T[Hyp][hTyr(3S-OH,4S-OH,3'-OSO3H)][Gln(3R-OH)][Pro(3S-OH,4S-Me)]; lactam 1-C)
Pf_72h_%Growth_Rep1 [1, 4]: 84.19%
Pf_72h_%Growth_Rep2 [1, 5]: 83.86%
Pf_120h_%Growth_Rep1 [2, 6]: 96.37%
Pf_120h_%Growth_Rep2 [2, 7]: 99.58%
Tg_72h_%Growth_Rep1 [3, 8]: 119.40%
Tg_72h_%Growth_Rep2 [3, 9]: 105.49%

C/C=C/C/C=C/CCC(=O)[C@H]1O[C@H]1C(N)=O [Cerulenin]
activity at 2 µg/mL ([1]; 3D7, P. falciparum, 72 h, screen at 2 μg/mL, replicate 1, read-out: Pf_72h_%Growth_Rep1): 86.4%
activity at 2 µg/mL ([1]; 3D7, P. falciparum, 72 h, screen at 2 μg/mL, replicate 2, read-out: Pf_72h_%Growth_Rep2): 80.4%
activity at 2 µg/mL ([2]; 3D7, P. falciparum, 120 h, screen at 2 μg/mL, replicate 1, read-out: Pf_120h_%Growth_Rep1): 137%
activity at 2 µg/mL ([2]; 3D7, P. falciparum, 120 h, screen at 2 μg/mL, replicate 2, read-out: Pf_120h_%Growth_Rep2): 85.1%
percent parasite growth at 2 µg/mL [3, 16]: 79%
percent parasite growth at 2 µg/mL [3, 17]: 81.8%
